Test results taken from patent publication US20230002346A1, “NEW COMPOUNDS AND METHODS” (BenevolentAl Bio Limited, priority 2019, published 2023).
pIC50: −log10 of the molar value. Converted amounts (≈) assume the structure as drawn.

System: not listed separately
Experiment: Kinetic aqueous solubility assay
Type: physicochemical
Conditions: aqueous buffer, kinetic from dmso stock, 0.05M potassium phosphate buffer pH 7.4, 250 μM spike, RT
Description: Using a 10 mM stock solution of test compound in 100% DMSO, test compounds were spiked into 0.05M potassium phosphate buffer (pH 7.4) at a final concentration of 250 μM. Samples in buffer (n=2 aqueous samples, in 96-well plates) were allowed to equilibrate at RT on an orbital shaker for 30 min (300 rpm) to induce precipitation of test compounds. The appearance of each sample was determined by visual examination and noted (clear, cloudy, precipitate observed etc.). […] The concentration of compound in phosphate buffer filtrate was determined by comparing the UV absorbance peak area of each replicate against that of the calibration standards. […] Compounds of the invention have much improved solubility compared to the reference examples.

Row | SMILES | solubility at 30 min
1 | O=C(Nc1ccc(OC(F)(F)F)cc1)c1ccc(=O)n(CCN2CCOCC2)c1 [Example 2, 1-(2-Morpholinoethyl)-6-oxo-N-[4-(trifluoromethoxy)phenyl]pyridine-3-carboxamide] | 215 µM (≈ 88.4 µg/mL)
2 | Cn1ccc(-n2cc(C(=O)Nc3ccc(OC(F)(F)Cl)cc3)ccc2=O)n1 [Example 3, N-[4-(Chlorodifluoromethoxy)phenyl]-1-(1-methyl-1H-pyrazol-3-yl)-6-oxo-1,6-dihydropyridine-3-carboxamide] | 140 µM (≈ 55.3 µg/mL)
3 | O=C(Nc1ccc(OC(F)(F)Cl)cc1)c1ccc(=O)n([C@H]2CCOC2)c1 [Example 4, N-[4-[Chloro(difluoro)methoxy]phenyl]-6-oxo-1-[(3S)-tetrahydrofuran-3-yl]pyridine-3-carboxamide] | 180 µM (≈ 69.3 µg/mL)
4 | COc1ncc(-n2cc(C(=O)Nc3ccc(OC(F)(F)Cl)cc3)ccc2=O)cn1 [Example 12, N-[4-[Chloro(difluoro)methoxy]phenyl]-1-(2-methoxypyrimidin-5-yl)-6-oxo-pyridine-3-carboxamide] | 140 µM (≈ 59.2 µg/mL)
5 | CN1CC[C@@H](n2cc(C(=O)Nc3ccc(OC(F)(F)Cl)cc3)ccc2=O)C1 [Example 16, N-[4-[Chloro(difluoro)methoxy]phenyl]-1-[(3R)-1-methylpyrrolidin-3-yl]-6-oxo-pyridine-3-carboxamide] | 180 µM (≈ 71.6 µg/mL)
6 | Cc1c(-n2cc(C(=O)Nc3ccc(OC(F)(F)Cl)cc3)ccc2=O)cnn1C [Example 18, N-[4-[Chloro(difluoro)methoxy]phenyl]-1-(1,5-dimethylpyrazol-4-yl)-6-oxo-pyridine-3-carboxamide] | 200 µM (≈ 81.8 µg/mL)
7 | N#Cc1cccc(-n2cc(C(=O)Nc3ccc(OC(F)(F)Cl)cc3)ccc2=O)c1 [Example 20, N-[4-(Chlorodifluoromethoxy)phenyl]-1-(3-cyanophenyl)-6-oxo-1,6-dihydropyridine-3-carboxamide] | 100 µM (≈ 41.6 µg/mL)
8 | Cn1nccc1-n1cc(C(=O)Nc2ccc(OC(F)(F)Cl)cc2)ccc1=O [Example 25, N-[4-(Chlorodifluoromethoxy)phenyl]-1-(1-methyl-1H-pyrazol-5-yl)-6-oxo-1,6-dihydropyridine-3-carboxamide] | 170 µM (≈ 67.1 µg/mL)
9 | O=C(Nc1ccc(OC(F)(F)Cl)cc1)c1ccc(=O)n(-c2cnn(C(F)F)c2)c1 [Example 27, N-[4-(Chlorodifluoromethoxy)phenyl]-1-[1-(difluoromethyl)-1H-pyrazol-4-yl]-6-oxo-1,6-dihydropyridine-3-carboxamide] | 100 µM (≈ 43.1 µg/mL)
10 | Cn1ncc(-n2cc(C(=O)Nc3ccc(OC(F)(F)Cl)cc3)ccc2=O)c1Cl [Example 30, 1-(5-Chloro-1-methyl-1H-pyrazol-4-yl)-N-[4-(chlorodifluoromethoxy)phenyl]-6-oxo-1,6-dihydropyridine-3-carboxamide] | 140 µM (≈ 60.1 µg/mL)
11 | N#Cc1cncc(-n2cc(C(=O)Nc3ccc(OC(F)(F)Cl)cc3)ccc2=O)c1 [Example 55, N-[4-[Chloro(difluoro)methoxy]phenyl]-1-(5-cyano-3-pyridyl)-6-oxo-pyridine-3-carboxamide] | 150 µM (≈ 62.5 µg/mL)

Further lines, results first:

Row | solubility at 30 min | SMILES
12 | 170 µM (≈ 69 µg/mL) | Cc1cncc(-n2cc(C(=O)Nc3ccc(OC(F)(F)Cl)cc3)ccc2=O)c1 [Example 57, N-[4-[Chloro(difluoro)methoxy]phenyl]-1-(5-methyl-3-pyridyl)-6-oxo-pyridine-3-carboxamide]
13 | 180 µM (≈ 76.1 µg/mL) | COc1cc(C(=O)Nc2ccc(OC(F)(F)Cl)cc2)cn(-c2cncnc2)c1=O [Example 58, N-[4-[Chloro(difluoro)methoxy]phenyl]-5-methoxy-6-oxo-1-pyrimidin-5-yl-pyridine-3-carboxamide]
14 | 190 µM (≈ 77.3 µg/mL) | Cc1cc(C(=O)Nc2ccc(OC(F)(F)Cl)cc2)cn(-c2cncnc2)c1=O [Example 59, N-[4-[Chloro(difluoro)methoxy]phenyl]-5-methyl-6-oxo-1-pyrimidin-5-yl-pyridine-3-carboxamide]
15 | 210 µM (≈ 100 µg/mL) | O=C(Nc1ccc(OC(F)(F)Cl)cc1)c1cc(N2CCOCC2)c(=O)n(-c2cncnc2)c1 [Example 60, N-[4-(Chlorodifluoromethoxy)phenyl]-5-(morpholin-4-yl)-6-oxo-1-(pyrimidin-5-yl)-1,6-dihydropyridine-3-carboxamide]
16 | 110 µM (≈ 49 µg/mL) | Cn1cc2ncc(-n3cc(C(=O)Nc4ccc(OC(F)(F)Cl)cc4)ccc3=O)cc2n1 [Example 71, N-[4-(Chlorodifluoromethoxy)phenyl]-1-{2-methyl-2H-pyrazolo[4,3-b]pyridin-6-yl}-6-oxo-1,6-dihydropyridine-3-carboxamide]
17 | 170 µM (≈ 69.2 µg/mL) | Cn1cc(C(=O)Nc2ccc(OC(F)(F)Cl)cc2)cc(-c2cncnc2)c1=O [Example 82, N-[4-(Chlorodifluoromethoxy)phenyl]-1-methyl-6-oxo-5-(pyrimidin-5-yl)-1,6-dihydropyridine-3-carboxamide]
18 | 9 µM (≈ 3.38 µg/mL) | O=C(Nc1ccc(OC(F)(F)Cl)cc1)c1cccc(-c2cncnc2)c1 [Ref. ex. 2, N-[4-[Chloro(difluoro)methoxy]phenyl]-3-pyrimidin-5-ylbenzamide, reference compound]
19 | 56 µM (≈ 20.9 µg/mL) | Cc1ccc(C(=O)Nc2ccc(OC(F)(F)F)cc2)cc1-c1cccnc1 [Ref. ex. 3, 4-Methyl-3-(3-pyridyl)-N-[4-(trifluoromethoxy)phenyl]benzamide, reference compound]

Target: T1, hERG channel (Homo sapiens, UniProt Q12809)
T1 construct: expressed in transfected cells
T1 sequence (Q12809 whole entry): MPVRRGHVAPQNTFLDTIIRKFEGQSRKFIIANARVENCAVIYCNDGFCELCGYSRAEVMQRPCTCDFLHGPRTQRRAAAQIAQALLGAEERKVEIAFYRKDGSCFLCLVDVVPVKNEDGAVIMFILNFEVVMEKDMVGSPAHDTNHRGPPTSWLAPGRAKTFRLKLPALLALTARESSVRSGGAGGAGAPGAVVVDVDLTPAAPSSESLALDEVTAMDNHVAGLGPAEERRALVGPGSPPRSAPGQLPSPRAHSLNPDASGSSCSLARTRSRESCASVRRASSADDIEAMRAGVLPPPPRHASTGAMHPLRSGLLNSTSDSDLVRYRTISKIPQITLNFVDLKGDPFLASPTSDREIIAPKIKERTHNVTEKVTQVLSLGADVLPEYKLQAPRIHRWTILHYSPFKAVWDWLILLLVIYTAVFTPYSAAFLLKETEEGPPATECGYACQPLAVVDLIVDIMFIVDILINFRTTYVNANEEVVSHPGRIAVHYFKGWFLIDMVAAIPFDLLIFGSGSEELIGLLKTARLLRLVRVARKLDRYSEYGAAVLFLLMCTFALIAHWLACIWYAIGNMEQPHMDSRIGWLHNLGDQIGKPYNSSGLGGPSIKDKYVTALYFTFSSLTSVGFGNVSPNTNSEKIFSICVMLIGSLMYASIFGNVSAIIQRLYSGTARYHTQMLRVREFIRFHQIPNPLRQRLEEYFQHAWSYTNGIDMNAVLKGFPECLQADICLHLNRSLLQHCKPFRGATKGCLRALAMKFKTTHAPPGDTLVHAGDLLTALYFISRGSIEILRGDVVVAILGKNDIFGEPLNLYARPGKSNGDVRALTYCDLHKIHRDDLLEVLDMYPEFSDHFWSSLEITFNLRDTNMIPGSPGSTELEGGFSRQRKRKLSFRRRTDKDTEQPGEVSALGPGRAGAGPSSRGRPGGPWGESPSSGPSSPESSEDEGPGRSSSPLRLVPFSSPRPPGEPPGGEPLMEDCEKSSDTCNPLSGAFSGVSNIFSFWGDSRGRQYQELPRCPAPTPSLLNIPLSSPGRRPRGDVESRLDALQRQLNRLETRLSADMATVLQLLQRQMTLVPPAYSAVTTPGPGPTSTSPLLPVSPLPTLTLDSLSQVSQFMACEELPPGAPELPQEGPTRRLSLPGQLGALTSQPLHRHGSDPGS
Experiment: hERG assay (QPatch automated patch clamp, CHO cells)
Type: cell-based
Conditions: CHO cells expressing hERG, whole-cell patch clamp, 0.003 μM to 10 μM
From the text: The human ether-a-go-go related gene (hERG) potassium channel (Kv11.1) contributes to human cardiac action potential repolarisation. Inhibition of hERG channels can prolong the human cardiac action potential, resulting in QTc prolongation and potentially lethal arrhythmias (e.g. Torsade de Pointes).
Test samples were screened against the hERG channel on a QPatch 48 gigaseal automated patch clamp platform, using a Chinese Hamster Ovary (CHO) cell line stably expressing the human ether-á-go-go related gene, which encodes the hERG channel. All recordings were made in the conventional whole-cell configuration and performed at RT ([…]) using standard single hole chips (Rchip 1.5-4M0). Series resistance (4-15Mc) was compensated by >80%. Currents were elicited from a holding potential of −90 mV using the industry standard “^+40/−40” voltage protocol, which was applied at a stimulus frequency of 0.1 Hz. On achieving the whole-cell configuration, vehicle (0.1% DMSO v/v in external recording solution) was applied to each cell in two bolus additions with a 2 min recording period between each addition. Following the vehicle period, eight increasing concentrations of test sample were applied from 0.003 μM to 10 μM as a single bolus addition per test concentration, and the effects on hERG tail current amplitude measured during the 2 min recording period. Each eight-point concentration-response curve was constructed using cumulative single sample additions of each concentration to the same cell. The positive control used in this study was verapamil hydrochloride (Tocris, Cat #0654, Batch #5A/61673) and prepared to a stock concentration of 10 mM in 100% DMSO and kept as frozen aliquots.
Data analysis: All cells passing the QC parameters (i.e. >200 pA outward current, membrane resistance and rundown) are selected as ‘passed QC’ using the QPatch software, which then calculates the mean peak current for the last three sweeps at the end of each concentration application period from the cursor positions defined. Percent inhibition is calculated for each test concentration application period as the reduction in mean cursor value (peak current or charge) relative to the cursor value measured at the end of the control (i.e. vehicle) period. The percent inhibition values from each cell are used to construct concentration-response curves employing a four parametric logistic fit with 0 and 100% inhibition levels fixed at very low and very high concentrations, respectively, and a free Hill slope factor. The IC50 (50% inhibitory concentration) and Hill coefficient are then determined, but only data from cells with Hill slopes within 0.5>nH<2.0 are included. The IC50 data reported below represents the mean (and S.D.) of at least three separate cells (N≥3). […] Compounds of the invention show reduced hERG inhibitory activity compared to the reference examples.

Row | SMILES | pIC50
20 | Cc1c(-n2cc(C(=O)Nc3ccc(OC(F)(F)Cl)cc3)ccc2=O)cnn1C [Example 18, N-[4-[Chloro(difluoro)methoxy]phenyl]-1-(1,5-dimethylpyrazol-4-yl)-6-oxo-pyridine-3-carboxamide] | < 5.00
21 | Cn1cc(C(=O)Nc2ccc(OC(F)(F)F)cc2)ccc1=O [Example 26, 1-Methyl-6-oxo-N-[4-(trifluoromethoxy)phenyl]pyridine-3-carboxamide] | < 5.00
22 | Cn1cc(C(=O)Nc2ccc(OC(F)(F)Cl)cc2)cc(-c2cncnc2)c1=O [Example 82, N-[4-(Chlorodifluoromethoxy)phenyl]-1-methyl-6-oxo-5-(pyrimidin-5-yl)-1,6-dihydropyridine-3-carboxamide] | < 5.00
23 | O=C(Nc1ccc(OC(F)(F)Cl)cc1)c1cccc(-c2cncnc2)c1 [Ref. ex. 2, N-[4-[Chloro(difluoro)methoxy]phenyl]-3-pyrimidin-5-ylbenzamide, reference compound] | 5.72
24 | Cc1ccc(C(=O)Nc2ccc(OC(F)(F)F)cc2)cc1-c1cccnc1 [Ref. ex. 3, 4-Methyl-3-(3-pyridyl)-N-[4-(trifluoromethoxy)phenyl]benzamide, reference compound] | 5.60
